Source: publication PMC5736936, “Xylopine Induces Oxidative Stress and Causes G2/M Phase Arrest, Triggering Caspase-Mediated Apoptosis by p53-Independent Pathway in HCT116 Cells” (Oxidative Medicine and Cellular Longevity, 2017)
Where two headings read alike, the source gives them in different places.

Tests used:
[1] = test system: PBMC (human peripheral blood mononuclear cells); experiment: Cytotoxic activity, alamarBlue assay, 72 h (noncancer cells); assay type: cell-based
Source text: (§1) MCF7 (human breast carcinoma), HCT116 (human colon carcinoma), HepG2 (human hepatocellular carcinoma), SCC-9 (human oral squamous cell carcinoma), HSC-3 (human oral squamous cell carcinoma), HL-60 (human promyelocytic leukemia), K-562 (human chronic myelogenous leukemia), B16-F10 (murine melanoma), MRC-5 (human lung fibroblast), WT SV40 MEF (wild-type immortalized mouse embryonic fibroblast), and BAD KO SV40 MEF (BAD gene knockout immortalized mouse embryonic fibroblast) cell lines were obtained from the American Type Culture Collection (ATCC, Manassas, VA, USA). Cells were cultured in complete medium with appropriate supplements as recommended by ATCC. All cell lines were tested for mycoplasma using the Mycoplasma Stain Kit (Sigma-Aldrich) to validate the use of cells free from contamination. Primary cell culture of peripheral blood mononuclear cells (PBMC) was obtained by standard Ficoll density protocol. The Research Ethics Committee of the Oswaldo Cruz Foundation (Salvador, BA, Brazil) approved the experimental protocol (number 031019/2013). Cell viability was examined using trypan blue exclusion assay for all experiments.
(§2) Cell viability was quantified using the alamarBlue assay according to Ahmed et al.. Cells were inserted in 96-well plates for all experiments (7 × 10^4 cells/mL for adherent cells or 3 × 10^5 cells/mL for suspended cells in 100 μL of medium). After 24 h, xylopine was dissolved in dimethyl sulfoxide (DMSO) and added to each well and incubated for 72 h. […] Four (for cell lines) or 24 h (for PBMCs) before the end of incubation, 20 μL of a stock solution (0.312 mg/mL) of the alamarBlue (resazurin, Sigma-Aldrich Co., Saint Louis, MO, USA) was added to each well. Absorbance at 570 nm and 600 nm was measured using the SpectraMax 190 Microplate Reader (Molecular Devices, Sunnyvale, CA, USA), and the drug effect was quantified as the percentage of control absorbance.

[2] = test system: MRC5 (human lung fibroblast); experiment: as above; assay type: cell-based
Source text: as §1, §2

[3] = test system: cancer multicellular spheroids formed from HCT116 cells; experiment: 3D multicellular spheroids culture, alamarBlue assay, 72 h; assay type: cell-based, human; conditions: 3D spheroids of HCT116, alamarBlue, 72 h
Protocol: HCT116 cells were cultivated in three-dimensional (3D) multicellular spheroids. Briefly, 100 μL of a solution of cells (0.5 × 10^6 cells/mL) was inserted in 96-well plates with a cell-repellent surface (Greiner Bio-One, Kremsmünster, Austria) and cultured in complete medium plus 3% Matrigel (BD Biosciences, San Jose, CA, USA). Spheroids with stable structures had formed after three days. Then, the spheroids were exposed to a range of drug concentrations for 72 h, after which the cell viability was quantified by alamarBlue assay as described above.

[4] = test system: HSC3 (human oral squamous cell carcinoma); experiment: Cytotoxic activity, alamarBlue assay, 72 h; assay type: cell-based; conditions: for IC50: HSC3, alamarBlue, 72 h
Source text: as §1, §2

[5] = test system: HepG2 (human hepatocellular carcinoma); experiment: Cytotoxic activity, alamarBlue assay, 72 h; assay type: cell-based; conditions: for IC50: HepG2, alamarBlue, 72 h
Source text: as §1, §2

[6] = test system: HL-60 (human promyelocytic leukemia); experiment: Cytotoxic activity, alamarBlue assay, 72 h; assay type: cell-based; conditions: for IC50: HL-60, alamarBlue, 72 h;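 for Selectivity index: SI is noncancer IC50 (MRC-5 or PBMC) divided by cancer cell IC50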
Source text: as §1, §2

[7] = test system: MCF7 (human breast carcinoma); experiment: Cytotoxic activity, alamarBlue assay, 72 h; assay type: cell-based; conditions: for IC50: MCF7, alamarBlue, 72 h;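 for Selectivity index: SI is noncancer IC50 (MRC-5 or PBMC) divided by cancer cell IC50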
Source text: as §1, §2

[8] = test system: B16-F10 (murine melanoma); experiment: Cytotoxic activity, alamarBlue assay, 72 h; assay type: cell-based; conditions: for IC50: B16-F10, alamarBlue, 72 h
Source text: as §1, §2

[9] = test system: HCT116 (human colon carcinoma); experiment: Cytotoxic activity, alamarBlue assay, 72 h; assay type: cell-based; conditions: for IC50: HCT116, alamarBlue, 72 h;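 for Selectivity index: SI is noncancer IC50 (MRC-5 or PBMC) divided by cancer cell IC50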
Source text: as §1, §2

[10] = test system: SCC9 (human oral squamous cell carcinoma); experiment: Cytotoxic activity, alamarBlue assay, 72 h; assay type: cell-based
Source text: as §1, §2

[11] = test system: K562 (human chronic myelogenous leukemia); experiment: Cytotoxic activity, alamarBlue assay, 72 h; assay type: cell-based; conditions: for IC50: K562, alamarBlue, 72 h;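 for Selectivity index: SI is noncancer IC50 (MRC-5 or PBMC) divided by cancer cell IC50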
Source text: as §1, §2

[12] = test system: HCT116 cells; assay type: cell-based, human; conditions: for cell cycle block: OXA 2.5 μM
Protocol: Cells were harvested in a permeabilization solution containing 0.1% Triton X-100 (Sigma Chemical Co., St Louis, MO, USA), 2 μg/mL propidium iodide (Sigma Chemical Co.), 0.1% sodium citrate, and 100 μg/mL RNAse (Sigma Chemical Co.) and incubated in the dark for 15 min at room temperature. Finally, cell fluorescence was measured by flow cytometry on a BD LSRFortessa cytometer using the BD FACSDiva software (BD Biosciences) and FlowJo software 10 (FlowJo, LCC, Ashland, OR, USA).

[13] = test system: HCT116 cells; experiment: Cell viability by trypan blue exclusion assay; assay type: cell-based, human; conditions: HCT116, trypan blue, DOX 1 μM, OXA 2.5 μM, 24 and 48 h
Source text: as §1

[14] = test system: HCT116 cells; experiment: Morphological analysis (May-Grünwald-Giemsa); assay type: cell-based, human; conditions: 24 and 48 h, DOX 1 μM, OXA 2.5 μM
Protocol: To evaluate alterations in morphology, cells were cultured under coverslip and stained with May-Grünwald-Giemsa. Morphological changes were examined by light microscopy using Image-Pro software.

[15] = test system: BAD KO SV40 MEF (BAD gene knockout immortalized mouse embryonic fibroblast); experiment: Cytotoxic activity in BAD gene knockout fibroblasts; assay type: cell-based; conditions: BAD KO SV40 MEF cell line
Source text: as §1, §2

[16] = test system: calf thymus DNA (ctDNA); experiment: DNA intercalation assay (ethidium bromide displacement); assay type: binding; conditions: doxorubicin 10 μM, data not shown
Protocol: DNA intercalation was assessed by examining the ability of xylopine to displace ethidium bromide from calf thymus DNA (ctDNA, Sigma-Aldrich Co.). The assay was conducted in 96-well plates and contained 15 μg/mL ctDNA, 1.5 μM ethidium bromide, and 10 or 20 μM xylopine in 100 μL saline solution. […] Fluorescence was measured using excitation and emission wavelengths of 320 and 600 nm, respectively.

[17] = test system: WT SV40 MEF (wild-type immortalized mouse embryonic fibroblast); experiment: Cytotoxic activity in wild-type fibroblasts; assay type: cell-based; conditions: WT SV40 MEF cell line
Source text: as §1, §2

[18] = HCT116, DOX 1 μM, 24 h incubation
[19] = HCT116, DOX 1 μM, 48 h incubation
[20] = HCT116, OXA 2.5 μM, 24 h incubation
[21] = HCT116, OXA 2.5 μM, 48 h incubation

SMILES: COc1cccc2c1C(=O)c1c(O)c3c(c(O)c1C2=O)C[C@@](O)(C(=O)CO)C[C@@H]3O[C@H]1C[C@H](N)[C@H](O)[C@H](C)O1 [DOX, doxorubicin]
- IC50 ([1]; Homo sapiens): 5200 nM
- IC50 ([2]; Homo sapiens): 1500 nM
- IC50 ([3]; Homo sapiens, HCT-116): 4.5 µM
- IC50 ([4]; Homo sapiens, HSC-3): 300 nM
- Selectivity index ([4]; IC50(MRC5)/IC50(HSC-3)): 5
- Selectivity index ([4]; IC50(PBMC)/IC50(HSC-3)): 17.3
- IC50 ([5]; Homo sapiens): 100 nM
- Selectivity index ([5]; IC50(MRC5)/IC50(HepG2)): 15
- Selectivity index ([5]; IC50(PBMC)/IC50(HepG2)): 52
- IC50 ([6]; Homo sapiens): 300 nM
- Selectivity index ([6]; IC50(MRC5)/IC50(HL-60)): 5
- Selectivity index ([6]; IC50(PBMC)/IC50(HL-60)): 17.3
- IC50 ([7]; Homo sapiens): 1100 nM
- Selectivity index ([7]; IC50(MRC5)/IC50(MCF7)): 1.4
- Selectivity index ([7]; IC50(PBMC)/IC50(MCF7)): 4.7
- Selectivity index ([8]; IC50(MRC5)/IC50(B16-F10)): 50
- Selectivity index ([8]; IC50(PBMC)/IC50(B16-F10)): 173.3
- IC50 ([8]; Mus musculus): 30 nM
- IC50 ([9]; Homo sapiens, HCT-116): 100 nM
- Selectivity index ([9]; IC50(MRC5)/IC50(HCT116)): 15
- Selectivity index ([9]; IC50(PBMC)/IC50(HCT116)): 52
- IC50 ([10]; Homo sapiens, SCC-9, SCC9, alamarBlue, 72 h): 500 nM
- Selectivity index ([10]; IC50(MRC5)/IC50(SCC-9)): 3
- IC50 ([11]; Homo sapiens): 300 nM
- Selectivity index ([11]; IC50(MRC5)/IC50(K-562)): 5
- Selectivity index ([11]; IC50(PBMC)/IC50(K-562)): 17.3
- DNA content (%) G0/G1 [12, 18]: 28.0 ± 6.3%
- DNA content (%) G2/M [12, 18]: 44.1 ± 3.4^∗ %
- DNA content (%) S [12, 18]: 10.0 ± 2.5%
- DNA content (%) Sub-G0/G1 [12, 18]: 9.7 ± 2.5%
- DNA content (%) G0/G1 [12, 19]: 22.5 ± 4.0^∗ %
- DNA content (%) G2/M [12, 19]: 44.2 ± 4.4^∗ %
- DNA content (%) S [12, 19]: 14.9 ± 2.5%
- DNA content (%) Sub-G0/G1 [12, 19]: 18.3 ± 2.5%
- cell cycle block ([12]; HCT116, DOX 1 μM): caused cell cycle block at the phase G2/M
- number of viable cells [13]: reduced the number of viable cells
- cell morphology [14]: cell shrinkage, chromatin condensation, and nuclear fragmentation
- IC50 [15]: 400 nM
- displacement of ethidium bromide from ctDNA (fluorescence intensity) [16]: significantly reduced the fluorescence intensity
- IC50 [17]: 30 nM

SMILES: O=c1[nH]cc(F)c(=O)[nH]1 [5-FU, 5-fluorouracil]
- IC50 [15]: 7300 nM
- IC50 [17]: 1700 nM

SMILES: O=C1[O][Pt]2([NH][C@@H]3CCCC[C@H]3[NH]2)[O]C1=O [OXA, oxaliplatin, reference compound]
- IC50 [1]: 14900 nM
- IC50 [2]: 1500 nM
- IC50 [3]: 6 µM
- IC50 [4]: 3300 nM
- IC50 [5]: 1000 nM
- IC50 [6]: 400 nM
- IC50 [7]: 5900 nM
- IC50 [8]: 100 nM
- IC50 [9]: 4100 nM
- IC50 [11]: 900 nM
- cell cycle block ([12]; HCT116, DOX 1 μM): caused cell cycle block at the phase G2/M
- DNA content (%) G0/G1 [12, 20]: 32.4 ± 3.7%
- DNA content (%) G2/M [12, 20]: 39.9 ± 1.5%
- DNA content (%) S [12, 20]: 13.5 ± 3.1%
- DNA content (%) Sub-G0/G1 [12, 20]: 8.8 ± 3.5%
- DNA content (%) G0/G1 [12, 21]: 36.2 ± 2.6%
- DNA content (%) G2/M [12, 21]: 32.2 ± 4.4%
- DNA content (%) S [12, 21]: 7.6 ± 0.4%
- DNA content (%) Sub-G0/G1 [12, 21]: 17.7 ± 1.9%
- number of viable cells [13]: reduced the number of viable cells
- cell morphology [14]: cell shrinkage, chromatin condensation, and nuclear fragmentation
